Columns and labels:
[1] = tested on: MMP-1; details: rabbit model of osteoarthritis; cited from earlier work
[2] = Isoelectric point / hydrophobicity; format: physicochemical
[3] = tested on: MMP expression; details: macrophages, fibroblasts, endothelial cells, epithelial cells; cited from earlier work
[4] = tested on: IL-6; test: U937 macrophages exposed to inhibitor-embedded scaffold with LPS, IL-6 ELISA; format: cell-based, human; details: inhibitor released from PLGA-collagen scaffold; LPS 100 ng/ml; 24 hrs
Description: (§1) FIGS. 9A-B. Human U937 macrophages were exposed to control scaffold, PD98059-embedded scaffold, or SB203580-embedded scaffold in the presence or absence of LPS (100 ng/ml) for 24 hrs. After the exposure, culture medium was collected for ELISA to quantify IL-6 (A) or MMP-1 (B).

[5] = tested on: MMP-1; test: U937 macrophages exposed to inhibitor-embedded scaffold with LPS, MMP-1 ELISA; format: cell-based, human; details: inhibitor released from PLGA-collagen scaffold; LPS 100 ng/ml; 24 hrs
Description: as §1

[6] = tested on: MMP-1; test: LPS-stimulated MMP-1 expression in U937 macrophages, ELISA of culture medium; format: cell-based, human; details: 10 μM PD98059, 100 ng/ml LPS, 24 h
Description: (§2) FIGS. 2A-D. A. E. coli and A. actinomycetemcomitans LPS activate MAPK pathways in macrophages. RAW 264.7 cells were stimulated for 15 min with LPS and whole cell lysates were used for Western blot analysis. […] B. A. actinomycetemcomitans LPS stimulation of IL-6 requires p38 MAPK signaling. Wild-type and p38 MAPK deficient cells were stimulated with A. actinomycetemcomitans LPS for 24 hrs (white bars). Cells were rescued with pcDNA containing p38a cDNA (p38α) in p38^−/− cells but the dominant negative mutant (p38AF) was not able to restore LPS-induced IL-6 expression. C. […] U937 macrophages were treated with 100 ng/ml of LPS in the presence or absence of 10 μM of PD98059 for 24 h. After the treatment, MMP-1 in culture medium was quantified by ELISA. D. Nuclear proteins were extracted from cells for electrophoretic mobility shift assay to determine AP-1 DNA-binding activity.

[7] = tested on: AP-1; test: AP-1 DNA-binding activity, electrophoretic mobility shift assay on nuclear proteins of U937 macrophages; format: cell-based, human; details: 10 μM PD98059, 100 ng/ml LPS, 24 h
Description: as §2

[8] = collagen; with literature reference 123; cited from earlier work

Molecule | MMP expression [3] | IL-6 in LPS stimulated cultures [4] | MMP-1 in LPS stimulated cultures [5] | further results
COc1cccc(-c2cc(=O)c3ccccc3o2)c1N [PD98059] | inhibit MMP expression | significant inhibition | significant inhibition | MMP-1 production by chondrocytes [1]: decreased MMP-1 production; Hydrophobicity [2]: hydrophobic; LPS-stimulated MMP-1 expression [6]: inhibitory effect; AP-1 DNA-binding activity [7]: inhibitory effect
C[S+]([O-])c1ccc(-c2nc(-c3ccncc3)c(-c3ccc(F)cc3)[nH]2)cc1 (centres unmarked) [SB203580] | – | significant inhibition | significant inhibition | –
N#CC(=C(/N)Sc1ccccc1N)/C(C#N)=C(\N)Sc1ccccc1N [U0126] | inhibit MMP expression | – | – | –
Collagen | – | – | – | Isoelectric point [8]: 5.5

From US20110038921A1, “METHODS AND COMPOSITIONS FOR TEMPORAL RELEASE OF AGENTS FROM A BIODEGRADABLE SCAFFOLD” (Clemson University Research Foundation, priority 2009, published 2011)
